{
  "source": "ChEMBL document CHEMBL1255421",
  "about": "“In vitro fungicidal activities of echinocandins against Candida metapsilosis, C. orthopsilosis, and C. parapsilosis evaluated by time-kill studies” (2010)",
  "key": {"[1]": {"test_system": "Candida orthopsilosis", "test": "Antifungal activity against Candida orthopsilosis clinical isolate bloodstream form assessed as time required for 99.9% reduction in fungal growth at 0.25 mg/L by time-kill assay", "assay_type": "functional"}, "[2]": {"test_system": "Candida orthopsilosis", "test": "Antifungal activity against Candida orthopsilosis clinical isolate bloodstream form assessed as time required for 99.9% reduction in fungal growth at 4 mg/L by time-kill assay", "assay_type": "functional"}, "[3]": {"test_system": "Candida metapsilosis", "test": "Antifungal activity against Candida metapsilosis clinical isolate bloodstream form assessed as time required for 50% reduction in fungal growth at 16 mg/L by time-kill assay", "assay_type": "functional"}, "[4]": {"test_system": "Candida metapsilosis", "test": "Antifungal activity against Candida metapsilosis clinical isolate bloodstream form assessed as time required for 50% reduction in fungal growth at 32 mg/L by time-kill assay", "assay_type": "functional"}, "[5]": {"test_system": "Candida metapsilosis", "test": "Antifungal activity against Candida metapsilosis clinical isolate bloodstream form assessed as time required for 90% reduction in fungal growth at 0.25 mg/L by time-kill assay", "assay_type": "functional"}, "[6]": {"test_system": "Candida metapsilosis", "test": "Antifungal activity against Candida metapsilosis clinical isolate bloodstream form assessed as time required for 90% reduction in fungal growth at 1 mg/L by time-kill assay", "assay_type": "functional"}, "[7]": {"test_system": "Candida metapsilosis", "test": "Antifungal activity against Candida metapsilosis clinical isolate bloodstream form assessed as time required for 90% reduction in fungal growth at 32 mg/L by time-kill assay", "assay_type": "functional"}, "[8]": {"test_system": "Candida metapsilosis", "test": "Antifungal activity against Candida metapsilosis clinical isolate bloodstream form assessed as time required for 99% reduction in fungal growth at 0.25 mg/L by time-kill assay", "assay_type": "functional"}, "[9]": {"test_system": "Candida metapsilosis", "test": "Antifungal activity against Candida metapsilosis clinical isolate bloodstream form assessed as time required for 99% reduction in fungal growth at 4 mg/L by time-kill assay", "assay_type": "functional"}, "[10]": {"test_system": "Candida metapsilosis", "test": "Antifungal activity against Candida metapsilosis clinical isolate bloodstream form assessed as time required for 99.9% reduction in fungal growth at 32 mg/L by time-kill assay", "assay_type": "functional"}, "[11]": {"test_system": "Candida parapsilosis", "test": "Antifungal activity against Candida parapsilosis clinical isolate bloodstream form assessed as time required for 50% reduction in fungal growth at 0.25 mg/L by time-kill assay", "assay_type": "functional"}, "[12]": {"test_system": "Candida parapsilosis", "test": "Antifungal activity against Candida parapsilosis clinical isolate bloodstream form assessed as time required for 50% reduction in fungal growth at 32 mg/L by time-kill assay", "assay_type": "functional"}, "[13]": {"test_system": "Candida parapsilosis", "test": "Antifungal activity against Candida parapsilosis clinical isolate bloodstream form assessed as time required for 90% reduction in fungal growth at 0.25 mg/L by time-kill assay", "assay_type": "functional"}, "[14]": {"test_system": "Candida parapsilosis", "test": "Antifungal activity against Candida parapsilosis clinical isolate bloodstream form assessed as time required for 90% reduction in fungal growth at 1 mg/L by time-kill assay", "assay_type": "functional"}, "[15]": {"test_system": "Candida parapsilosis", "test": "Antifungal activity against Candida parapsilosis clinical isolate bloodstream form assessed as time required for 99% reduction in fungal growth at 0.25 mg/L by time-kill assay", "assay_type": "functional"}, "[16]": {"test_system": "Candida parapsilosis", "test": "Antifungal activity against Candida parapsilosis clinical isolate bloodstream form assessed as time required for 99% reduction in fungal growth at 1 mg/L by time-kill assay", "assay_type": "functional"}, "[17]": {"test_system": "Candida parapsilosis", "test": "Antifungal activity against Candida parapsilosis clinical isolate bloodstream form assessed as time required for 99% reduction in fungal growth at 4 mg/L by time-kill assay", "assay_type": "functional"}, "[18]": {"test_system": "Candida parapsilosis", "test": "Antifungal activity against Candida parapsilosis clinical isolate bloodstream form assessed as time required for 99% reduction in fungal growth at 16 mg/L by time-kill assay", "assay_type": "functional"}, "[19]": {"test_system": "Candida parapsilosis", "test": "Antifungal activity against Candida parapsilosis clinical isolate bloodstream form assessed as time required for 99% reduction in fungal growth at 32 mg/L by time-kill assay", "assay_type": "functional"}, "[20]": {"test_system": "Candida parapsilosis", "test": "Antifungal activity against Candida parapsilosis clinical isolate bloodstream form assessed as time required for 99.9% reduction in fungal growth at 32 mg/L by time-kill assay", "assay_type": "functional"}, "[21]": {"test_system": "Candida metapsilosis", "test": "Antifungal activity against Candida metapsilosis clinical isolate bloodstream form assessed as time required for 99.9% reduction in fungal growth at 1 mg/L by time-kill assay", "assay_type": "functional"}, "[22]": {"test_system": "Candida orthopsilosis", "test": "Fungicidal activity against Candida orthopsilosis isolate CP-150 bloodstream form by CLSI method", "assay_type": "functional", "conditions": "Lodderomyces orthopsilosis"}, "[23]": {"test_system": "Candida orthopsilosis", "test": "Fungicidal activity against Candida orthopsilosis isolate CP-151 bloodstream form by CLSI method", "assay_type": "functional", "conditions": "Lodderomyces orthopsilosis"}, "[24]": {"test_system": "Candida metapsilosis", "test": "Fungicidal activity against Candida metapsilosis isolate CP-133 bloodstream form by CLSI method", "assay_type": "functional", "conditions": "Lodderomyces metapsilosis"}, "[25]": {"test_system": "Candida metapsilosis", "test": "Fungicidal activity against Candida metapsilosis isolate ATC193 bloodstream form by CLSI method", "assay_type": "functional", "conditions": "Lodderomyces metapsilosis, isolate ATC-193"}, "[26]": {"test_system": "Candida parapsilosis", "test": "Fungicidal activity against Candida parapsilosis isolate CP-302 bloodstream form by CLSI method", "assay_type": "functional", "conditions": "Lodderomyces parapsilosis"}, "[27]": {"test_system": "Candida parapsilosis", "test": "Antifungal activity against Candida parapsilosis clinical isolate bloodstream form assessed as fungal count at 4 mg/L measured at 6 hrs by time-kill assay", "assay_type": "functional"}, "[28]": {"test_system": "Candida parapsilosis", "test": "Antifungal activity against Candida parapsilosis clinical isolate bloodstream form assessed as induction of miniparadoxical effect at 16 mg/L after 48 hrs by time-kill assay", "assay_type": "functional, organism-based"}, "[29]": {"test_system": "Candida parapsilosis", "test": "Antifungal activity against Candida parapsilosis clinical isolate bloodstream form assessed as inhibition of fungal regrowth at 0.03 to 32 mg/L after 6 hrs by time-kill assay", "assay_type": "functional, organism-based"}, "[30]": {"test_system": "Candida metapsilosis", "test": "Antifungal activity against Candida metapsilosis clinical isolate bloodstream form assessed as induction of fungal killing rate at 0.03 to 32 mg/L measured at 6 hrs by time-kill assay", "assay_type": "functional, organism-based"}, "[31]": {"test_system": "Candida orthopsilosis", "test": "Antifungal activity against Candida orthopsilosis clinical isolate bloodstream form assessed as mild induction of fungal death at 0.03 to 32 mg/L after 6 hrs by time-kill assay", "assay_type": "functional, organism-based"}, "[32]": {"test_system": "Candida orthopsilosis", "test": "Antifungal activity against Candida orthopsilosis clinical isolate bloodstream form assessed as induction of maximal fungal death at 16 mg/L after 48 hrs by time-kill assay", "assay_type": "functional, organism-based"}, "[33]": {"test_system": "Candida metapsilosis", "test": "Antifungal activity against Candida metapsilosis clinical isolate bloodstream form assessed as induction of maximal fungal death at 16 mg/L after 48 hrs by time-kill assay", "assay_type": "functional, organism-based"}, "[34]": {"test_system": "Candida metapsilosis", "test": "Antifungal activity against Candida metapsilosis clinical isolate bloodstream form assessed as minimum concentration required for => 3-log decrease in fungal growth after 12 to 48 hrs by time-kill assay", "assay_type": "functional"}, "[35]": {"test_system": "Candida orthopsilosis", "test": "Antifungal activity against Candida orthopsilosis clinical isolate bloodstream form assessed as time required for 50% reduction in fungal growth at 1 mg/L by time-kill assay", "assay_type": "functional"}, "[36]": {"test_system": "Candida orthopsilosis", "test": "Antifungal activity against Candida orthopsilosis clinical isolate bloodstream form assessed as time required for 50% reduction in fungal growth at 32 mg/L by time-kill assay", "assay_type": "functional"}, "[37]": {"test_system": "Candida orthopsilosis", "test": "Antifungal activity against Candida orthopsilosis clinical isolate bloodstream form assessed as time required for 90% reduction in fungal growth at 4 mg/L by time-kill assay", "assay_type": "functional"}, "[38]": {"test_system": "Candida orthopsilosis", "test": "Antifungal activity against Candida orthopsilosis clinical isolate bloodstream form assessed as time required for 90% reduction in fungal growth at 16 mg/L by time-kill assay", "assay_type": "functional"}, "[39]": {"test_system": "Candida orthopsilosis", "test": "Antifungal activity against Candida orthopsilosis clinical isolate bloodstream form assessed as time required for 90% reduction in fungal growth at 32 mg/L by time-kill assay", "assay_type": "functional"}},
  "note": "Calls of active or inactive are those of the source. The calls are words filed in the database; no cut-off is given here.",
  "data": [
    {"smiles": "CC[C@H](C)C[C@H](C)CCCCCCCCC(=O)N[C@H]1C[C@@H](O)[C@@H](NCCN)NC(=O)[C@@H]2[C@@H](O)CCN2C(=O)[C@H]([C@H](O)CCN)NC(=O)[C@H]([C@H](O)[C@@H](O)c2ccc(O)cc2)NC(=O)[C@@H]2C[C@@H](O)CN2C(=O)[C@H]([C@@H](C)O)NC1=O", "note": "[CASPOFUNGIN]", "values": [
      {"measurement": "Time", "setting": "[1]", "result": ">48", "unit": "h"},
      {"measurement": "Time", "setting": "[2]", "result": 34.05, "unit": "h"},
      {"measurement": "Time", "setting": "[3]", "result": 2.59, "unit": "h"},
      {"measurement": "Time", "setting": "[4]", "result": 1.99, "unit": "h"},
      {"measurement": "Time", "setting": "[5]", "result": ">48", "unit": "h"},
      {"measurement": "Time", "setting": "[6]", "result": ">48", "unit": "h"},
      {"measurement": "Time", "setting": "[7]", "result": 6.6, "unit": "h"},
      {"measurement": "Time", "setting": "[8]", "result": ">48", "unit": "h"},
      {"measurement": "Time", "setting": "[9]", "result": ">48", "unit": "h"},
      {"measurement": "Time", "setting": "[10]", "result": 19.8, "unit": "h"},
      {"measurement": "Time", "setting": "[11]", "result": ">48", "unit": "h"},
      {"measurement": "Time", "setting": "[12]", "result": 1.99, "unit": "h"},
      {"measurement": "Time", "setting": "[13]", "result": ">48", "unit": "h"},
      {"measurement": "Time", "setting": "[14]", "result": ">48", "unit": "h"},
      {"measurement": "Time", "setting": "[15]", "result": ">48", "unit": "h"},
      {"measurement": "Time", "setting": "[16]", "result": ">48", "unit": "h"},
      {"measurement": "Time", "setting": "[17]", "result": ">48", "unit": "h"},
      {"measurement": "Time", "setting": "[18]", "result": ">48", "unit": "h"},
      {"measurement": "Time", "setting": "[19]", "result": ">48", "unit": "h"},
      {"measurement": "Time", "setting": "[20]", "result": ">48", "unit": "h"},
      {"measurement": "Time", "setting": "[21]", "result": ">48", "unit": "h"},
      {"measurement": "MIC", "setting": "[22]", "result": 0.5, "unit": "µg/mL"},
      {"measurement": "MIC", "setting": "[23]", "result": 0.5, "unit": "µg/mL"},
      {"measurement": "MIC", "setting": "[24]", "result": 0.5, "unit": "µg/mL"},
      {"measurement": "MIC", "setting": "[25]", "result": 0.12, "unit": "µg/mL"},
      {"measurement": "MIC", "setting": "[26]", "result": 2, "unit": "µg/mL"},
      {"measurement": "log10cfu", "setting": "[27]", "result": "1.43 /ml"},
      {"measurement": "Activity", "setting": "[28]", "result": "Active"},
      {"measurement": "inhibition", "setting": "[29]", "result": "inactive"},
      {"measurement": "Activity", "setting": "[30]", "result": "inactive"},
      {"measurement": "Activity", "setting": "[31]", "result": "Active"},
      {"measurement": "Activity", "setting": "[32]", "result": "Active"},
      {"measurement": "Activity", "setting": "[33]", "result": "Active"},
      {"measurement": "MED", "setting": "[34]", "result": 14, "unit": "mg/L"},
      {"measurement": "Time", "setting": "[35]", "result": 7.45, "unit": "h"},
      {"measurement": "Time", "setting": "[36]", "result": 10.53, "unit": "h"},
      {"measurement": "Time", "setting": "[37]", "result": 11.35, "unit": "h"},
      {"measurement": "Time", "setting": "[38]", "result": 12.82, "unit": "h"},
      {"measurement": "Time", "setting": "[39]", "result": 34.97, "unit": "h"}
    ]}
  ]
}
